The source of these data is US20240208992A1, “MACROCYCLES AS CFTR MODULATORS” (Idorsia Pharmaceuticals Ltd, priority 2021, published 2024).

In the assay the target is human F508del-CFTR (Homo sapiens, UniProt P13569, DEL508-508). The experiment in a line: F508del-CFTR cell surface expression (corrector activity), DiscoveRx ß-galactosidase complementation chemiluminescence assay in recombinant U2OS cell line.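 As to all read-outs here: U2OS cells co-expressing ProLink-tagged F508del-CFTR and a membrane-anchored enzyme acceptor, where more surface CFTR restores β-galactosidase activity measured by chemiluminescence.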 Conditions: for EC50: EC50, F508del-CFTR cell surface expression, U2OS cells, 16h compound incubation, geomean values; for Emax: in relation to Emax of corrector lumacaftor (=100%), arithmetic mean values.
Sequence of human F508del-CFTR (P13569 with tags, fused parts or gaps DEL508-508): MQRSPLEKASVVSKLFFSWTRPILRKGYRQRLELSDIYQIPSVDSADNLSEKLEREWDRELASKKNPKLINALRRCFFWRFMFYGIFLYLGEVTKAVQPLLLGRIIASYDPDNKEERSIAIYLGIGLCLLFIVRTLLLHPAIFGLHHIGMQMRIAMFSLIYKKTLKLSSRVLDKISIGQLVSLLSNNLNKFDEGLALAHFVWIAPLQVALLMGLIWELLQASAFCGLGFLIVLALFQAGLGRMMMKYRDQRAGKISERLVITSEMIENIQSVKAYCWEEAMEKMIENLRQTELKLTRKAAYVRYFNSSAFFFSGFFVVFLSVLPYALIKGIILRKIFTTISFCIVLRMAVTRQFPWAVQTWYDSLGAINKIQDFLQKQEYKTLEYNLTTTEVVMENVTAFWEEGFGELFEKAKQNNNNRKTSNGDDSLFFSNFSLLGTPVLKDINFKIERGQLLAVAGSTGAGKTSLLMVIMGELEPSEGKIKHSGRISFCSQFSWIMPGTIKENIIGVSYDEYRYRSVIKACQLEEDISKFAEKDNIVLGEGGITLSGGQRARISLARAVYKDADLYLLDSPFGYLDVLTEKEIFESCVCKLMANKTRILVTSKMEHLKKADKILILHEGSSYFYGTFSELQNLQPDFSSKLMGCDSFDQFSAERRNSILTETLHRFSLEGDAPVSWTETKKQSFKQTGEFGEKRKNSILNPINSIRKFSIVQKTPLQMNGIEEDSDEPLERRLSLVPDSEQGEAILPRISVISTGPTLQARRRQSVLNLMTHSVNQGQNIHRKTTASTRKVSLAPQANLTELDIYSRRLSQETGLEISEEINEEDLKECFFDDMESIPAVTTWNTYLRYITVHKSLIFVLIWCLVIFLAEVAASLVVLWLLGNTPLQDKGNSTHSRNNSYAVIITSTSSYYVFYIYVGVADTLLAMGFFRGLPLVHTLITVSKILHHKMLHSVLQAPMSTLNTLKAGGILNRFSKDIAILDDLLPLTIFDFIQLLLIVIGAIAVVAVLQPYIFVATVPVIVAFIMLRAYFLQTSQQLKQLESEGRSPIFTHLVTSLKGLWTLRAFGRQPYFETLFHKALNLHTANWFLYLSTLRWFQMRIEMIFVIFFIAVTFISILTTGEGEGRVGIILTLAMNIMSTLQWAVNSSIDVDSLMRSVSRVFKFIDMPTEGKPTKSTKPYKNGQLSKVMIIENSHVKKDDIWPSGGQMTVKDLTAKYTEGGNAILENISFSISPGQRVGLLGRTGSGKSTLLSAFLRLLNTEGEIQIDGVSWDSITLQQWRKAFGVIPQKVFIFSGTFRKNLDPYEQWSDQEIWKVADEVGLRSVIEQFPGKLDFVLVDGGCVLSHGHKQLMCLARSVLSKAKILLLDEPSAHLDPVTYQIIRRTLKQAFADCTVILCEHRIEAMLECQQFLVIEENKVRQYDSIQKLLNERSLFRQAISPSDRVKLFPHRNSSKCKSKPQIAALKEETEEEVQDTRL

SMILES strings stand for the structures.

Method: The method measures the effect of over-night compound incubation on F508del-CFTR cell surface expression in a recombinant U2OS cell line (DiscoveRx, #93-0987C3). This cell line is engineered to co-express (i) human F508del-CFTR tagged with a Prolink (PK=short ß-galactosidase fragment) and (ii) the remainder of the ß-galactosidase enzyme (Enzyme Acceptor; EA) localized to the plasma membrane. Incubation with compounds that increase PK-tagged F508del-CFTR at the plasma membrane will lead to complementation of the EA fragment to form a functional ß-galactosidase enzyme which is quantified by a chemiluminescence reaction.
The cells are incubated for 5h in the incubator before the addition of 5 μl/well of compound dilution series (5× working stocks in full medium). […] The cells are co-incubated with the compounds for 16h in the incubator at 37° C., 5% CO2. The next day, the cell plates are incubated for 2h at RT in the dark. […] Concentration-response curves are generated using compound-intrinsic maximal efficacy as upper plateau, and from these CRCs compound-intrinsic EC50 values are determined.
The calculated EC50 values may fluctuate depending on the daily assay performance. […] EC50 values from several measurements are given as geomean values. The calculated Emax values may fluctuate depending on the daily assay performance. […] Emax values from several measurements are given as arithmetic mean values.

A word on the EC50: it is the concentration that produces a half-maximal response. By Emax is commonly meant the size of the effect at its maximum, as opposed to the concentration needed. Turning to `COc1cccc(CCNC(=O)[C@@H]2CC(=O)N(C)[C@@H](CC(C)C)C(=O)N3CCCC[C@@H]3C(=O)N[C@H](Cc3ccccc3)COc3cnc4cccc(F)c4c3C(=O)N2)c1` [Example 535, (9S,13S,19aR,22R)-22-benzyl-6-fluoro-13-isobutyl-N-(3-methoxyphenethyl)-12-methyl-7,11,14,20-tetraoxo-7,8,9,10,11,12,13,14,17,18,19,19a,20,21,22,23-hexadecahydro-16H-pyrido[2′,1′:6,7][1]oxa[4,7,10,14]tetraazacycloheptadecino[17,16-c]quinoline-9-carboxamide], the EC50 amounted to 407 nM. For the same molecule, the Emax (U2OS) was found to be 424%.
Taken in the same sequence, the figures for `COc1cccc(CCNC(=O)[C@@H]2CC(=O)N(C)[C@@H](CC(C)C)C(=O)N3CCN(c4ccccc4)C[C@@H]3C(=O)N[C@H](Cc3ccccc3)COc3ccc4nc(C)oc4c3C(=O)N2)c1` [Example 536, (8S,12S,18aR,21R)-21-benzyl-12-isobutyl-N-(3-methoxyphenethyl)-4,11-dimethyl-6,10,13,19-tetraoxo-17-phenyl-6,7,8,9,10,11,12,13,16,17,18,18a,19,20,21,22-hexadecahydro-15H-oxazolo[4′,5′:5,6]benzo[1,2-p]pyrazino[2,1-f][1]oxa[4,7,10,14]tetraazacycloheptadecine-8-carboxamide] were 175 nM and 358%.
Take `COc1cccc(CCNC(=O)[C@@H]2CC(=O)N(C)[C@@H](CC(C)C)C(=O)N3CC[C@@H](C3)C(=O)N[C@H](Cc3ccccc3)COc3cnc4ccc(F)cc4c3C(=O)N2)c1` [Example 537, (73S,4R,9S,13S)-4-benzyl-16-fluoro-9-isobutyl-N-(3-methoxyphenethyl)-10-methyl-6,8,11,15-tetraoxo-2-oxa-5,10,14-triaza-1(3,4)-quinolina-7(3,1)-pyrrolidinacyclopentadecaphane-13-carboxamide]: the EC50 was 384 nM. Besides, under “U2OS”, the maximum response (Emax) was 294%.
For `COc1cccc(CCNC(=O)[C@@H]2CC(=O)N(C)[C@@H](CC(C)C)C(=O)N3CCN(c4ccccc4)C[C@@H]3C(=O)N[C@H](Cc3ccccc3)COc3ccnc(OC)c3C(=O)N2)c1` [Example 538, (7S,11S,20R,22aR)-20-benzyl-7-isobutyl-14-methoxy-N-(3-methoxyphenethyl)-8-methyl-6,9,13,22-tetraoxo-2-phenyl-1,3,4,6,7,8,9,10,11,12,13,19,20,21,22,22a-hexadecahydro-2H-pyrazino[2,1-f]pyrido[3,4-p][1]oxa[4,7,10,14]tetraazacycloheptadecine-11-carboxamide], the EC50 turned out to be 80 nM. Besides, the Emax (U2OS) came out at 340%.
In the case of `CC(C)C[C@H]1C(=O)N(C)[C@@H](CC2CCC(F)(F)CC2)C(=O)N[C@H](Cc2ccccc2)COc2cnc3ccc(F)cc3c2C(=O)N[C@H](C(=O)NCCc2noc(C3CC3)n2)CC(=O)N1C` [Example 539, (3S,7S,10R,13R)-13-benzyl-N-(2-(5-cyclopropyl-1,2,4-oxadiazol-3-yl)ethyl)-10-((4,4-difluorocyclohexyl)methyl)-20-fluoro-7-isobutyl-6,9-dimethyl-1,5,8,11-tetraoxo-1,2,3,4,5,6,7,8,9,10,11,12,13,14-tetradecahydro-[1]oxa[4,7,10,14]tetraazacycloheptadecino[17,16-c]quinoline-3-carboxamide], the EC50 was found to be 95 nM and the Emax turned out to be 391%.
For the molecule `CC(C)C[C@H]1C(=O)N(C)[C@@H](CC2CCC(F)(F)CC2)C(=O)N[C@H](Cc2ccccc2)COc2cnc3ccc(F)cc3c2C(=O)N[C@H](C(=O)NCCc2noc(C3CC3)n2)CC(=O)N1C` [Example 540, (3S,7S,10S,13R)-13-benzyl-N-(2-(5-cyclopropyl-1,2,4-oxadiazol-3-yl)ethyl)-10-((4,4-difluorocyclohexyl)methyl)-20-fluoro-7-isobutyl-6,9-dimethyl-1,5,8,11-tetraoxo-1,2,3,4,5,6,7,8,9,10,11,12,13,14-tetradecahydro-[1]oxa[4,7,10,14]tetraazacycloheptadecino[17,16-c]quinoline-3-carboxamide], the EC50 was determined as 269 nM and the Emax came to 256%.
`CC(C)C[C@H]1C(=O)N2CCCC[C@@H]2C(=O)N[C@H](Cc2ccccc2)COc2ccc3ncc(F)cc3c2C(=O)N[C@H](C(=O)NCCc2noc(C3CC3)n2)CC(=O)N1C` [Example 541, (9S,13S,19aR,22R)-22-benzyl-N-(2-(5-cyclopropyl-1,2,4-oxadiazol-3-yl)ethyl)-5-fluoro-13-isobutyl-12-methyl-7,11,14,20-tetraoxo-7,8,9,10,11,12,13,14,17,18,19,19a,20,21,22,23-hexadecahydro-16H-pyrido[2′,1′:6,7][1]oxa[4,7,10,14]tetraazacycloheptadecino[16,17-f]quinoline-9-carboxamide]: the EC50 was 185 nM. Besides, the Emax (U2OS) amounted to 357%.
On the same counts, the results for `COc1nccc2c1C(=O)N[C@H](C(=O)NCCc1cc(C)no1)CC(=O)N(C)[C@@H](CC(C)C)C(=O)N1CCN(c3ccccc3)C[C@@H]1C(=O)N[C@H](Cc1ccccc1)CO2` [Example 542, (7S,11S,20R,22aR)-20-benzyl-7-isobutyl-14-methoxy-8-methyl-N-(2-(3-methylisoxazol-5-yl)ethyl)-6,9,13,22-tetraoxo-2-phenyl-1,3,4,6,7,8,9,10,11,12,13,19,20,21,22,22a-hexadecahydro-2H-pyrazino[2,1-f]pyrido[3,4-p][1]oxa[4,7,10,14]tetraazacycloheptadecine-11-carboxamide] are 368 nM and 334%.
On to `CC(C)C[C@H]1C(=O)N(C)C2(CC2)C(=O)N[C@H](Cc2ccccc2)COc2ccc3ncccc3c2C(=O)N[C@H](C(=O)NCCc2cc(C3CC3)no2)CC(=O)N1C` [Example 543, (3′S,7′S,13′R)-13′-benzyl-N-(2-(3-cyclopropylisoxazol-5-yl)ethyl)-7′-isobutyl-6′,9′-dimethyl-1′,5′,8′,11′-tetraoxo-2′,3′,4′,5′,6′,7′,8′,9′,11′,12′,13′,14′-dodecahydro-1′H-spiro[cyclopropane-1,10′-[1]oxa[4,7,10,14]tetraazacycloheptadecino[16,17-f]quinoline]-3′-carboxamide], for which the EC50 is 785 nM. The Emax (U2OS) is 399%.
`CC(C)C[C@H]1C(=O)N(C)C2(CC2)C(=O)N[C@H](Cc2ccccc2)COc2ccc3ncccc3c2C(=O)N[C@H](C(=O)NCCc2noc(C3CC3)n2)CC(=O)N1C` [Example 544, (3′S,7′S,13′R)-13′-benzyl-N-(2-(5-cyclopropyl-1,2,4-oxadiazol-3-yl)ethyl)-7′-isobutyl-6′,9′-dimethyl-1′,5′,8′,11′-tetraoxo-2′,3′,4′,5′,6′,7′,8′,9′,11′,12′,13′,14′-dodecahydro-1′H-spiro[cyclopropane-1,10′-[1]oxa[4,7,10,14]tetraazacycloheptadecino[16,17-f]quinoline]-3′-carboxamide]: the EC50 stood at 774 nM. Further, the Emax (U2OS) is 398%.
As for `CC(C)C[C@H]1C(=O)N(C)C2(CC2)C(=O)N[C@H](Cc2ccccc2)COc2ccc3ncc(F)cc3c2C(=O)N[C@H](C(=O)NCCc2cc(C3CC3)no2)CC(=O)N1C` [Example 545, (3′S,7′S,13′R)-13′-benzyl-N-(2-(3-cyclopropylisoxazol-5-yl)ethyl)-20′-fluoro-7′-isobutyl-6′,9′-dimethyl-1′,5′,8′,11′-tetraoxo-2′,3′,4′,5′,6′,7′,8′,9′,11′,12′,13′,14′-dodecahydro-1′H-spiro[cyclopropane-1,10′-[1]oxa[4,7,10,14]tetraazacycloheptadecino[16,17-f]quinoline]-3′-carboxamide], the EC50 stood at 349 nM. The maximal response (Emax) (U2OS) is 385%.
Regarding `CC(C)C[C@H]1C(=O)N(C)C2(CC2)C(=O)N[C@H](Cc2ccccc2)COc2ccc3ncc(F)cc3c2C(=O)N[C@H](C(=O)NCCc2noc(C3CC3)n2)CC(=O)N1C` [Example 546, (3′S,7′S,13′R)-13′-benzyl-N-(2-(5-cyclopropyl-1,2,4-oxadiazol-3-yl)ethyl)-20′-fluoro-7′-isobutyl-6′,9′-dimethyl-1′,5′,8′,11′-tetraoxo-2′,3′,4′,5′,6′,7′,8′,9′,11′,12′,13′,14′-dodecahydro-1′H-spiro[cyclopropane-1,10′-[1]oxa[4,7,10,14]tetraazacycloheptadecino[16,17-f]quinoline]-3′-carboxamide], the EC50 was 350 nM. In addition, the Emax (U2OS) turned out to be 411%.
Take `Cc1cc(CCNC(=O)[C@@H]2CC(=O)N(C)[C@@H](CC(C)C)C(=O)N(C)[C@H](C(C)C)C(=O)N[C@H](Cc3ccccc3)COc3cnc4ccccc4c3C(=O)N2)on1` [Example 547, (3S,7S,10R,13R)-13-benzyl-7-isobutyl-10-isopropyl-6,9-dimethyl-N-(2-(3-methylisoxazol-5-yl)ethyl)-1,5,8,11-tetraoxo-1,2,3,4,5,6,7,8,9,10,11,12,13,14-tetradecahydro-[1]oxa[4,7,10,14]tetraazacycloheptadecino[17,16-c]quinoline-3-carboxamide]: the EC50 is 281 nM. Moreover, the Emax (U2OS) is 330%.
For `Cc1cc(CCNC(=O)[C@@H]2CC(=O)N(C)[C@@H](CC(C)C)C(=O)N(C)[C@H](CC(C)C)C(=O)N[C@H](Cc3ccccc3)COc3cnc4ccccc4c3C(=O)N2)on1` [Example 548, (3S,7S,10R,13R)-13-benzyl-7,10-diisobutyl-6,9-dimethyl-N-(2-(3-methylisoxazol-5-yl)ethyl)-1,5,8,11-tetraoxo-1,2,3,4,5,6,7,8,9,10,11,12,13,14-tetradecahydro-[1]oxa[4,7,10,14]tetraazacycloheptadecino[17,16-c]quinoline-3-carboxamide], the EC50 came to 106 nM. Besides, the maximal response (Emax) (U2OS) worked out at 326%.
